Measurements as given in patent publication US11453640B2, “Small molecules for disrupting the super elongation complex and inhibiting transcription elongation for cancer therapy” (NORTHWESTERN UNIVERSITY, priority 2018, dated 2022).

Columns and labels:
[1] = tested on: H2171 and SW1271 cells; experiment: CellTiter-Glo cell proliferation of small cell lung cancer cells; type: cell-based, human; details: 3 days, increasing concentrations
From the text: FIG. 6. SEC disruption targets MYC and MYC target genes. (A-B) Venn diagram of deregulated genes in 293T cells by KL-1 and KL-2. […] (C) Heat map showing the expression changes in response to SEC inhibitors, with differentially expressed canonical MYC targets, RNA splicing factors, and core SNRP assembly genes highlighted. […] Each cluster is represented by different colors and a circle node denotes each enriched term. (E) MA plots of RNA splicing and Hallmark MYC target genes in KL-2 treated, AFF1 and AFF4 co-depletion, and ELL2-depleted cells. […] The MYC genes, the PRMT5 gene, and genes encoding SEC components are denoted as red squares. (F) Western analysis of MYC protein levels in the MYC lowly expressed small cell lung cancer cell line […] and MYC-amplified small cell lung cancer cell line H2171. (G) Gained SEC occupancy at the MYC binding sites in MYC highly expressed H2171 cells. Genome browser tracks of MYC and SEC occupancy around the PRMT5 gene in SW1271 and H2171 cells are shown. (H) ChIP-seq analysis of MYC binding peaks in SW1271 and H2171 cells. […] The SEC and MYC peaks were determined by MACS with a p-value cutoff at 1E-5. […] Both cell lines were treated with increasing concentrations of KL-1 and KL-2 for 3 days and the cell proliferation was measured with CellTiter-Glo luminescent cell viability assay (Promega) (n=3-6).

[2] = tested on: Pol II; experiment: 4sU-FP-seq measurement of Pol II transcription elongation rate in HEK293T cells; type: cell-based, human; details: 20 μM pretreatment 5 hr, HMM analysis, 982 genes
Experimental: FIG. 4. Small molecule disruption of SEC slows Pol II elongation rates. (A) Workflow of 4sU-FP-seq based measurement of the transcription elongation rate of RNA Pol II. HEK293T cells were pretreated with vehicle or 20 μM SEC inhibitors for 5 hr before addition of the CDK9 inhibitor flavopiridol for 1 hr to arrest Pol II at the promoter-proximal pause site. Inhibitors are washed out with PBS before allowing transcription to proceed in the presence of with fresh medium containing 500 μM 4-Thiouridine (4sU) for 15 min. The 4sU-labeled RNA is then extracted and fragmented before purification, and followed with RNA-seq. (B) Genome browser tracks of 4sU-FP-seq for vehicle and SEC inhibitor-treated cells at the ACTN2 and MTR loci. […] (C) Heatmap analysis of 4sU-FP-seq in vehicle and the indicated SEC inhibitors in HEK293T cells. All genes longer than 50 kb (N=5,568) were plotted and ordered using the total 4sU-FP-seq signals in the vehicle-treated cells. (D) Metaplot of strand-specific 4sU-FP-seq signals in vehicle and SEC inhibitors-treated cells. […] Raw changes in 4sU-FP-seq read counts in non-overlapping 50 bp windows used to infer elongation rates for the MTR gene. […] (F-G) Histograms (F) and boxplots (G) comparing the transcription elongation rates for 982 genes in HEK293T cells for which high confidence elongation rates could be determined. […]

In the case of `COc1cccc(C(=O)CC(=O)C(=O)Nc2cc(Cl)ccc2C)c1` [KL-1, N-(5-chloro-2-methylphenyl)-4-oxo-4-(3-methoxyphenyl)-2-oxobutanamide], the “sensitivity of high MYC expressing H2171 cells versus low MYC expressing SW1271 cells” value [1] is reported as “more sensitive” and the “elongation rate of Pol II” value [2] is reported as “decreased the elongation rate of Pol II”.
